Data from ChEMBL document CHEMBL1201862, “PubChem BioAssay data set” (2004).
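In this assay, cells in 96-well plates receive the compound at five concentrations for 48 hours. Endpoints are linearly interpolated between the surrounding concentrations. The concentration for 50% growth inhibition is given as GI50.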 Activity calls are given as the source filed them. No stated cut-off is given here; in the data, active = GI50 up to about 1.1 µM and inactive = higher.

Key:
Test in all cases: NCI tumour cell line growth inhibition, 48 h
786-0 = tested on: 786-0
A498 = tested on: A498
A549 = tested on: A549
ACHN = tested on: ACHN
CCRF-CEM = tested on: CCRF-CEM
DU-145 = tested on: DU-145
HCT-116 = tested on: HCT-116
K562 = tested on: K562
MDA-MB-435 = tested on: MDA-MB-435
MDA-N = tested on: MDA-N
Malme-3M = tested on: Malme-3M
NCI/ADR-RES = tested on: NCI/ADR-RES
OVCAR-8 = tested on: OVCAR-8
RXF 393 = tested on: RXF 393
SK-MEL-28 = tested on: SK-MEL-28
SK-MEL-5 = tested on: SK-MEL-5
SK-OV-3 = tested on: SK-OV-3
SN12C = tested on: SN12C
SNB-75 = tested on: SNB-75
UACC-257 = tested on: UACC-257

Measured: GI50

COC(=O)c1ccc(/C=C2\CCc3ccccc3C2=O)cc1
inactive: 786-0 > 100 µM | A498 34.4 µM | A549 > 100 µM | ACHN > 100 µM | CCRF-CEM > 100 µM | DU-145 > 100 µM | HCT-116 > 100 µM | K562 > 100 µM | MDA-MB-435 > 100 µM | MDA-N > 100 µM | Malme-3M > 100 µM | NCI/ADR-RES > 100 µM | OVCAR-8 > 100 µM | RXF 393 > 100 µM | SK-MEL-28 > 100 µM | SK-MEL-5 > 100 µM | SK-OV-3 > 100 µM | SN12C > 100 µM | SNB-75 > 100 µM | UACC-257 > 100 µM

C=C(C)C1CC2=C(C(=O)OC)C=C(O2)C(C(=C)C)[C@@H]2OC(=O)/C(=C\C1O)[C@H]2N(C)C (stereo not given in full)
inactive: 786-0 8.05 µM | A498 17.1 µM | A549 13.9 µM | ACHN 11.7 µM | CCRF-CEM 1.6 µM | DU-145 12.1 µM | HCT-116 13.8 µM | K562 3.6 µM | MDA-MB-435 9.44 µM | MDA-N 11.4 µM | Malme-3M 12.9 µM | NCI/ADR-RES 8.07 µM | OVCAR-8 10.9 µM | RXF 393 5.02 µM | SK-MEL-28 13.1 µM | SK-MEL-5 14.2 µM | SK-OV-3 24.9 µM | SN12C 12.5 µM | SNB-75 14.6 µM | UACC-257 20.9 µM

CC(C)c1ccc(C(c2c(O)oc3ccccc3c2=O)c2c(O)oc3ccccc3c2=O)cc1
inactive: 786-0 21.1 µM | A498 17.7 µM | A549 19.1 µM | ACHN 26.2 µM | CCRF-CEM 11.6 µM | DU-145 23.8 µM | HCT-116 17 µM | K562 18.2 µM | MDA-MB-435 20.4 µM | MDA-N 21.5 µM | Malme-3M 20.6 µM | NCI/ADR-RES 22.3 µM | OVCAR-8 19.1 µM | RXF 393 21.8 µM | SK-MEL-28 18.9 µM | SK-MEL-5 16 µM | SK-OV-3 27 µM | SN12C 19.4 µM | SNB-75 25.9 µM | UACC-257 21.3 µM

CN(C)CCNS(=O)(=O)c1ccc(N)cc1
inactive: 786-0 > 100 µM | A498 > 100 µM | A549 > 100 µM | ACHN > 100 µM | CCRF-CEM > 100 µM | DU-145 > 100 µM | HCT-116 > 100 µM | K562 > 100 µM | MDA-MB-435 > 100 µM | MDA-N > 100 µM | Malme-3M > 100 µM | NCI/ADR-RES > 100 µM | OVCAR-8 > 100 µM | RXF 393 > 100 µM | SK-MEL-28 > 100 µM | SK-MEL-5 > 100 µM | SK-OV-3 > 100 µM | SN12C > 100 µM | SNB-75 > 100 µM | UACC-257 > 100 µM
